Consider one compound from PMC10108345, “Differentiating Inhibition Selectivity and Binding Affinity of Isocitrate Dehydrogenase 1 Variant Inhibitors” (Journal of Medicinal Chemistry, 2023).

In assay [1] the target is T1, wt IDH1 (Homo sapiens, UniProt O75874).
T1 construct: made in house; host or cells: Escherichia coli BL21(DE3) pLyS
In words: Differential scanning fluorimetry (DSF) thermal shift, wt IDH1. The class given is binding. Conditions: largest change in Tm of IDH1 ([…]) with 3-100 μM inhibitor. How it is done:
Thermal shift experiments were carried out using Sypro Orange and a CFX96 Touch Real-Time PCR Detection System (Bio-Rad) machine.[42] […] The standard assay buffer contains 50 mM tris–HCl at pH 7.5. Various concentrations of compounds (1% DMSO final) were mixed with IDH1 for thermal stabilization studies. […] Bio-Rad CFX Manager was used to determine the melting temperature, Tm.
(In general: DSF heats the sample and reads unfolding from a dye or from intrinsic fluorescence.)

For assay [2], the target named is T1, wt IDH1. The assay is described as follows: Absorbance turnover assay (NADPH, 340 nm), wt IDH1-catalyzed conversion of isocitrate to 2OG. It counts as biochemical. Conditions: wt IDH1 (2 nM), isocitrate to 2OG; 100 mM tris-HCl, 10 mM MgCl2, pH 8.0; read-out: IC50/nM wt IDH1. The protocol: (Figure 3, Scheme 1). […] We employed ^1H NMR (700 MHz) spectroscopy to simultaneously monitor NADPH, NADP^+, 2OG, and 2HG levels (Figure S3) in order to validate observations from the absorbance assays.
IDH1 activities were measured spectrophotometrically by monitoring changes in NADPH absorbance at 340 nm.[10] […] The difference in absorbance, ΔA340, in the linear range of the reaction profile was converted to % residual activity using a DMSO control as the 100% residual activity reference. […] Experiments were performed in (at least) triplicate. The standard assay buffer for IDH1 consists of 100 mM tris–HCl, 10 mM MgCl2, 0.005% (v/v) Tween 20, pH 8.0, 0.2 mM DTT, and 0.1 mg/mL BSA. In general, compounds [25 μL, 0.4% (v/v) DMSO] were pre-incubated with IDH1 (25 μL) for 12 min, followed by addition of DL-isocitrate/2OG (25 μL) and NADP^+/NADPH (25 μL) to initiate the reaction. The substrate/cofactor concentrations were optimized by determining KM values for substrates/cofactors as described.[10]

The target in assay [3] is T1, wt IDH1. The assay is described as follows: Circular dichroism (CD) melting temperature, wt IDH1. It counts as binding. Conditions: inhibitor 42 μM, IDH 4.2 μM (0.2 mg/mL); read-out: Δ Tm/°C by CD wt IDH1. The protocol:
CD spectra were acquired using a Chirascan CD spectrometer (Applied Photophysics) with a Peltier temperature-control cell holder. Experiments were carried out in a 0.1 cm path length quartz cuvette at 20 °C. […] Spectra were averaged (n = 3) and smoothed (window size = 7) using the Savitzky–Golay filter. The mean residue ellipticity (MRE) was calculated according to the formula [drawing 1] where θ is the degree of ellipticity, N is the number of amino acids, c is the concentration (mol/L), and l is the path length (cm).
Measurements were conducted in 2 °C increments. The melting temperature was calculated using a Boltzmann sigmoidal model in GraphPad Prism v5.04.
(In general: Circular dichroism is the unequal absorption of left and right circularly polarised light.)

Assay [4] has as its target T1, wt IDH1. The assay is described as follows: Isothermal titration calorimetry (ITC), wt IDH1. The settings on record: 40 μM IDH1, 50 mM tris-HCl pH 7.5, 25 °C. The class given is binding. The protocol: ITC was conducted using a Malvern MicroCal PEAQ-ITC Automated machine (Malvern Panalytical). In general, IDH1 was prepared in 50 mM tris–HCl, pH 7.5, and the compounds were dissolved in the same buffer. 400 μL of cell solution containing 40 μM IDH1 [4% (v/v) DMSO] and 200 μL of the titrant containing 200 or 400 μM compound [2% or 4% (v/v) DMSO] were transferred to an ITC plate (Malvern Panalytical WEL020854-010). […] The injection setup consisted of 19 injections, with 1 initial injection of 0.4 μL and 18 subsequent injections of 2.0 μL each with 150 s between the injections. Thermodynamic parameters were obtained using MicroCal PEAQ-ITC analysis software.

Assay [5] has as its target T1, wt IDH1. The assay is described as follows: Ligand-observed 1H NMR (CPMG-edited, 700 MHz) binding, wt IDH1. The settings on record: line broadening, 10 μM inhibitor, 50 mM tris-D11-HCl pH 7.5. The protocol: Additional solvent presaturation was applied for 2 s. Samples contained 160 μL of 10 μM compound (0.2% DMSO) in 50 mM tris-D11-HCl, pH 7.5 in 90% H2O/10% D2O (v/v). […] 200 or 400 scans per IDH concentration were recorded, and signals corresponding to the compound were integrated and processed using TopSpin 3.6.1 software.

The next assay has as its target T2, IDH1 R132H (Homo sapiens, UniProt O75874, R132H).
T2 construct: made in house; host or cells: Escherichia coli BL21(DE3) pLyS
In words: 1H NMR (700 MHz) reaction monitoring, IDH1 R132H-catalysed conversion of 2OG to 2HG. It counts as biochemical. Conditions: 1 μM IDH1 R132H, 20 μM compound, over […]; in words. How it is done:
Nuclear magnetic resonance (NMR) reaction monitoring was performed at 298 K using a Bruker AVIII 700 MHz NMR spectrometer with a 5 mm inverse triple-carbon-inverse (TCI) cryoprobe in 5 mm tubes (Norell). Data were recorded with a relaxation delay of 2 s and 32 scans, employing a pulse sequence with water suppression (^1H excitation sculpting suppression with perfect-echo using a 2 ms Sinc selective inversion pulse). There is a time delay of 184 s between each acquired spectrum over the time-course experiment. Conversion of 2OG to 2HG catalyzed by IDH1 R132H was monitored using 500 μL of 1 μM IDH, 20 μM compound [0.4% (v/v) DMSO, 10 min pre-incubation with IDH], 10 mM MgCl2, 1.5 mM NADPH, and 1.5 mM 2OG, in 50 mM tris-D11-HCl, pH 7.5 in 90% H2O/10% D2O (v/v). Data were processed with TopSpin 3.6.1 software. Signals corresponding to NADPH, NADP^+, 2OG, and 2HG at each time point over a total of 2 to 3 h were integrated, converted to concentrations, and plotted against time. The difference in concentrations in the linear range of the reaction profile was converted to % residual activity with the DMSO control defined as the 100% residual activity reference.

Bounds are passed on as bounds.

T1 sequence (O75874 whole entry): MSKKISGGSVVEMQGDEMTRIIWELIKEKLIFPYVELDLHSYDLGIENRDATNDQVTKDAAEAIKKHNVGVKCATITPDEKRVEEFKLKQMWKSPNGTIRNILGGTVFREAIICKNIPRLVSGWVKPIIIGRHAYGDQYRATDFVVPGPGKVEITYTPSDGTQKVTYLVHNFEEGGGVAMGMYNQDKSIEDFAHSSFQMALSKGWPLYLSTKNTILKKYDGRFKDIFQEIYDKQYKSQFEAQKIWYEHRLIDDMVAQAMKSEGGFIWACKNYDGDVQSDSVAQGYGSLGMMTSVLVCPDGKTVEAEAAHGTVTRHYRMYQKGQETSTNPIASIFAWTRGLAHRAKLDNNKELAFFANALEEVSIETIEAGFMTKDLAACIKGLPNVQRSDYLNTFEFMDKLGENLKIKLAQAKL
T2 sequence (O75874 whole entry R132H): as the sequence (O75874 whole entry) above, with R132H counted along it

Consider `Cc1ccccc1C(C(=O)NC1CCCCC1)N(C(=O)Cn1ccnc1C)c1cccc(F)c1` (stereo not drawn) [AGI-5198], for which the “Δ Tm/°C by DSF wt IDH1” value at wt IDH1 [1] turned out to be 6.9 °C. Besides, the IC50 at wt IDH1 [2] was over 10000 nM. For the same compound, on wt IDH1 [3], the ΔTm at 42 µM turned out to be 2.9 °C. Moreover, the dissociation constant (Kd) on wt IDH1 [4] is over 400 µM; on wt IDH1 [5], 9.1 µM. Also, the “inhibition of IDH1 R132H catalysed conversion of 2OG to 2HG monitored by 1H NMR” value on IDH1 R132H is listed as “weaker inhibition”.

One may read the Kd as the constant that tells how readily two partners part at equilibrium.
